For 18 molecules, IC50 and EC50 results are on record in patent publication US20160002204A1 (Board of Regents, The University of Texas System, priority 2014, published 2016).

Assay [1] concerns the target T1, GLS1 (purified recombinant human GAC) (Homo sapiens, UniProt O94925).
T1 sequence (O94925 55-598 isoform O94925-3 limits assumed): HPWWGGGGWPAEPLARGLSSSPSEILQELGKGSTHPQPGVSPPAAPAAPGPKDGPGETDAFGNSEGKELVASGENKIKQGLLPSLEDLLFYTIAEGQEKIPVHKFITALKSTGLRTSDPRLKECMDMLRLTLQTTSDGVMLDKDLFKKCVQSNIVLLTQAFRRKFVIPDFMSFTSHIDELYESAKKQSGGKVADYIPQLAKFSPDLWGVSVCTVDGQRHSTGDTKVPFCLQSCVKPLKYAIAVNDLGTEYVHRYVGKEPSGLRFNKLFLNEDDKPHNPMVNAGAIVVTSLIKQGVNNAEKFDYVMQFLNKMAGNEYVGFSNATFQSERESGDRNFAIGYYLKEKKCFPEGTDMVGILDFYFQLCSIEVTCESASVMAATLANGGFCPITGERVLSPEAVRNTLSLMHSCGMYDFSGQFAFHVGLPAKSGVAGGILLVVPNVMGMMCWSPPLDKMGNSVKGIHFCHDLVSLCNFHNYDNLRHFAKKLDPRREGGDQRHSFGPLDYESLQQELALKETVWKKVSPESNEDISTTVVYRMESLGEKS
Nature of the assay: GLS1 enzymatic activity assay (dual-coupled, Amplex UltraRed/resorufin). In kind it is biochemical. How it is done: GLS1 Enzymatic Activity Assay
The inhibition of purified recombinant human GAC by varying concentrations of inhibitors is assessed via a dual-coupled enzymatic assay. The glutamate produced by the glutaminase reaction is used by glutamate oxidase to produce α-ketoglutarate, ammonia, and hydrogen peroxide, with this hydrogen peroxide subsequently being used by horseradish peroxidase to produce resorufin in the presence of Amplex UltraRed. The assay buffer consisted of 50 mM Hepes (pH 7.4), 0.25 mM EDTA and 0.1 mM Triton X-100. GAC was incubated with potassium phosphate (10 minutes at room temperature) prior to incubation with inhibitor (10 minutes at room temperature). The final reaction conditions were as follows: 2 nM GAC, 50 mM potassium phosphate, 100 mU/mL glutamate oxidase (Sigma), 1 mM glutamine (Sigma), 100 mU/mL horseradish peroxidase (Sigma), 75 μM Amplex UltraRed (Life Technologies), and 1% (v/v) DMSO. The production of resorufin was monitored on a Perkin Elmer Envision plate reader (excitation 530 nm, emission 590 nm) either in a kinetics or endpoint mode (at 20 minutes). IC50 values were calculated using a four-parameter logistic curve fit.

A further assay relates to A549 cells. Put plainly: A549 proliferation (viability) assay, Cell Titer Fluor, 72 hours. The note with it: Homo sapiens. In kind it is cell-based. How it is done: A549 cells were routinely maintained in RPMI 1640 media (Gibco catalog number 11875-093) supplemented with 10% dialyzed fetal bovine serum using a humidified incubator (37° C., 5% CO2 and ambient O2). In preparation for the viability assay, cells were inoculated into 384-well black CulturPlates (Perkin Elmer) at a density of 1000 cells/well in a volume of 40 uL. Following a 24-hour incubation at 37° C., 5% CO2 and ambient O2, cells were treated with compound (10 uL) in a final DMSO concentration of 0.5% (v/v). The microplates were then incubated for 72 hours (37° C., 5% CO2 and ambient O2). Cell Titer Fluor (Promega) was subsequently added (10 uL of 6× reagent) and mixed for 15 minutes at room temperature. The plates were then incubated for 30 minutes (37° C., 5% CO2 and ambient O2) and fluorescence was subsequently read on the Perkin Elmer Envision plate reader. EC50 values were calculated using a four-parameter logistic curve fit.

Where only a bound is given, the exact number is not on record here.

For `O=C(NCc1cccc(C(F)(F)F)c1)c1cn(CCCCn2ccc(NC(=O)C3CCCCC3)cc2=O)nn1` [Example 152, 1-[4-(4-cyclohexaneamido-2-oxo-1,2-dihydropyridin-1-yl)butyl]-N-{[3-(trifluoromethyl)phenyl]methyl}-1H-1,2,3-triazole-4-carboxamide], the half-maximal inhibitory concentration (IC50) (as a rule, the concentration needed to halve the response being measured) in assay [1] was below 100 nM. For the same molecule, the EC50 (in general, the concentration giving half of the maximal effect) in the assay with A549 cells lay in the range of 100 to 500 nM.
The corresponding values for `COc1ccc(CNC(=O)c2cn(CCCCn3ccc(NC(=O)Cc4cccc(OC(F)(F)F)c4)cc3=O)nn2)cc1` [Example 67, N-[(4-methoxyphenyl)methyl]-1-[4-(2-oxo-4-{2-[3-(trifluoromethoxy)phenyl]acetamido}-1,2-dihydropyridin-1-yl)butyl]-1H-1,2,3-triazole-4-carboxamide] are below 100 nM and 500 to 5000 nM.
For the molecule `CC(C)(C)OC(=O)N1CCC(CC(=O)Nc2ccn(CCCCn3cc(C(=O)NCc4cccc(OC(F)(F)F)c4)nn3)c(=O)c2)CC1` [Example 205, tert-butyl 4-{[(2-oxo-1-{4-[4-({[3-(trifluoromethoxy)phenyl]methyl}carbamoyl)-1H-1,2,3-triazol-1-yl]butyl}-1,2-dihydropyridin-4-yl)carbamoyl]methyl}piperidine-1-carboxylate], in assay [1], the IC50 is below 100 nM. For the same molecule, in the assay on A549 cells, the EC50 was below 100 nM.
In the case of `O=C(CN1CCCC1=O)Nc1ccn(CCCCn2cc(C(=O)NCc3cccc(C(F)(F)F)c3)nn2)c(=O)c1` [Example 155, 1-(4-{2-oxo-4-[2-(2-oxopyrrolidin-1-yl)acetamido]-1,2-dihydropyridin-1-yl}butyl)-N-{[3-(trifluoromethyl)phenyl]methyl}-1H-1,2,3-triazole-4-carboxamide], the IC50 in assay [1] fell in the range of 100 to 500 nM. For the same molecule, in the assay on A549 cells, the EC50 was above 5000 nM.
The corresponding values for `C[C@H](C(=O)Nc1ccn(CCC(F)Cn2cc(C(=O)NCc3ccc(C(F)(F)F)nc3)nn2)c(=O)c1F)c1ccccc1` (stereo partly drawn) [Example 368, 1-(2-fluoro-4-{3-fluoro-2-oxo-4-[(2S)-2-phenylpropanamido]-1,2-dihydropyridin-1-yl}butyl)-N-{[6-(trifluoromethyl)pyridin-3-yl]methyl}-1H-1,2,3-triazole-4-carboxamide] are below 100 nM and below 100 nM.
On to `O=C(Cc1ccccc1)Nc1ccn(CCCCc2nnc(C(=O)NCc3ccccn3)s2)c(=O)c1` [Example 445, 5-{4-[2-oxo-4-(2-phenylacetamido)-1,2-dihydropyridin-1-yl]butyl}-N-(pyridin-2-ylmethyl)-1,3,4-thiadiazole-2-carboxamide], for which the IC50 in assay [1] fell in the range of 100 to 500 nM. Also, the EC50 with A549 cells lay within 500 to 5000 nM.
For the molecule `O=C(CC1CCCC1)Nc1ccn(CCC(F)Cn2cc(C(=O)NCc3cccc(OC(F)(F)F)c3)nn2)c(=O)c1` (stereo not drawn) [Example 220, 1-{4-[4-(2-cyclopentylacetamido)-2-oxo-1,2-dihydropyridin-1-yl]-2-fluorobutyl}-N-{[3-(trifluoromethoxy)phenyl]methyl}-1H-1,2,3-triazole-4-carboxamide], the IC50 in assay [1] is below 100 nM. For the same molecule, the half-maximal effective concentration (EC50) in the assay with A549 cells is below 100 nM.
In the case of `CC(C)OC(=O)Nc1ccn(CCC(F)Cn2cc(C(=O)NCc3cccc(OC(F)(F)F)c3)nn2)c(=O)n1` (stereo not drawn) [Example 384, propan-2-yl N-(1-{3-fluoro-4-[4-({[3-(trifluoromethoxy)phenyl]methyl}carbamoyl)-1H-1,2,3-triazol-1-yl]butyl}-2-oxo-1,2-dihydro-pyrimidin-4-yl)carbamate], the IC50 in assay [1] is below 100 nM. Further, the concentration giving a half-maximal response (EC50) in the assay with A549 cells lay within 100 to 500 nM.
The like results for `CC(C)(C)COC(=O)Nc1ccn(CCC(F)Cn2cc(C(=O)NCc3cc(C(F)(F)F)ccn3)nn2)c(=O)n1` (stereo not drawn) [Example 492, 2,2-dimethylpropyl N-(1-{3-fluoro-4-[4-({[4-(trifluoromethyl)pyridin-2-yl]methyl}carbamoyl)-1H-1,2,3-triazol-1-yl]butyl}-2-oxo-1,2-dihydropyrimidin-4-yl)carbamate] were, in that order, below 100 nM and below 100 nM.
The corresponding values for `O=C(Cc1ccccc1)Nc1ccn(CC(F)CCn2cc(C(=O)NCc3cc(Br)ccn3)nn2)c(=O)c1` (stereo not drawn) [Example 160, N-[(4-bromopyridin-2-yl)methyl]-1-{3-fluoro-4-[2-oxo-4-(2-phenylacetamido)-1,2-dihydropyridin-1-yl]butyl}-1H-1,2,3-triazole-4-carboxamide] are below 100 nM and 500 to 5000 nM.
The like results for `O=C(CC1CCCCC1)Nc1ccn(CCC(F)Cn2cc(C(=O)NCc3cc(OC(F)(F)F)ccc3F)nn2)c(=O)c1` (stereo not drawn) [Example 176, 1-{4-[4-(2-cyclohexylacetamido)-2-oxo-1,2-dihydropyridin-1-yl]-2-fluorobutyl}-N-{[2-fluoro-5-(trifluoromethoxy)phenyl]methyl}-1H-1,2,3-triazole-4-carboxamide] were, in that order, below 100 nM and below 100 nM.
For the molecule `O=C(Cc1cccc(OC(F)(F)F)c1)Nc1ccc(CCCCn2ccc(NC(=O)NCc3ccccc3)nc2=O)nn1` [Example 23, N-(6-(4-(4-(3-benzylureido)-2-oxopyrimidin-1(2H)-yl)butyl)pyridazin-3-yl)-2-(3-(trifluoromethoxy)phenyl)acetamide], the concentration for half-maximal inhibition (IC50) in assay [1] is below 100 nM. In addition, the EC50 in the assay on A549 cells lay in the range of 500 to 5000 nM.
With `N#CC1CCCN(C(=O)C(=O)Nc2ccn(CCC(F)Cn3cc(C(=O)NCc4cccc(OC(F)(F)F)c4)nn3)c(=O)c2F)C1` (stereo not drawn) [Example 420, 1-(4-{4-[2-(3-cyanopiperidin-1-yl)-2-oxoacetamido]-3-fluoro-2-oxo-1,2-dihydropyridin-1-yl}-2-fluorobutyl)-N-{[3-(trifluoromethoxy)phenyl]methyl}-1H-1,2,3-triazole-4-carboxamide], the IC50 in assay [1] was below 100 nM. In the assay on A549 cells, this molecule showed an EC50 of 500 to 5000 nM.
`CC(C(=O)Nc1ccn(CCC(F)Cn2cc(C(=O)NCc3cccc(OC(F)(F)F)c3)nn2)c(=O)c1F)c1ccccc1` (stereo not drawn) [Example 316, 1-{2-fluoro-4-[3-fluoro-2-oxo-4-(2-phenylpropanamido)-1,2-dihydropyridin-1-yl]butyl}-N-{[3-(trifluoromethoxy)phenyl]methyl}-1H-1,2,3-triazole-4-carboxamide]: the IC50 in assay [1] was below 100 nM. Moreover, the half-maximal effective concentration (EC50) in the assay on A549 cells is below 100 nM.
On to `O=C(Nc1ccn(CCCCc2nnc(C(=O)NCc3cc(C(F)(F)F)ccn3)s2)c(=O)c1F)C(=O)N1CCCCC1` [Example 466, 5-(4-{3-fluoro-2-oxo-4-[2-oxo-2-(piperidin-1-yl)acetamido]-1,2-dihydropyridin-1-yl)butyl)-N-{[4-(trifluoromethyl)pyridin-2-yl]methyl}-1,3,4-thiadiazole-2-carboxamide], for which, in assay [1], the concentration for half-maximal inhibition (IC50) is below 100 nM. The molecule further displayed an EC50 in the assay on A549 cells of 100 to 500 nM.
The corresponding values for `O=C(NCc1cc(C(F)(F)F)ccn1)c1cn(CC(F)CCn2ccc(COc3c(F)cccc3F)cc2=O)nn1` (stereo not drawn) [Example 485, 1-{4-[4-(2,6-difluorophenoxymethyl)-2-oxo-1,2-dihydropyridin-1-yl]-2-fluorobutyl}-N-{[4-(trifluoromethyl)pyridin-2-yl]methyl}-1H-1,2,3-triazole-4-carboxamide] are 100 to 500 nM and 100 to 500 nM.
The like results for `CC(C(=O)Nc1ccn(CCC(F)Cn2cc(C(=O)NCc3cccc(OC(F)(F)F)c3)nn2)c(=O)c1F)N1CCCCC1` (stereo not drawn) [Example 337, 1-(2-fluoro-4-(3-fluoro-2-oxo-4-(2-(piperidin-1-yl)propanamido)pyridin-1(2H)-yl)butyl)-N-(3-(trifluoromethoxy)benzyl)-1H-1,2,3-triazole-4-carboxamide] were, in that order, below 100 nM and below 100 nM.
The like results for `O=C(Cc1cccc(OC(F)(F)F)c1)Nc1ccc(CCCCn2ccc(NC(=O)CO)nc2=O)nn1` [Example 113, 2-hydroxy-N-{2-oxo-1-[4-(6-{2-[3-(trifluoromethoxy)phenyl]acetamido}pyridazin-3-yl)butyl]-1,2-dihydropyrimidin-4-yl}acetamide] were, in that order, below 100 nM and 500 to 5000 nM.
